Assay [1] deals with Escherichia coli EC-1: VOGEL, mouse virulent. Nature of the assay: MIC determination (CLSI), strain EC-1. The format is cell-based. The conditions noted are these: strain EC-1; unit assumed. In a few lines: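 The mouse-virulent VOGEL isolate of E. coli, EC-1, served as test organism. Minimum inhibitory concentration was measured by CLSI dilution methodology (M7-A7; M100-S18 standards).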

The test system of assay [2] is Pseudomonas aeruginosa UI-18: Wild-type (PA-7). Nature of the assay: MIC determination (CLSI), strain PA-7. The assay is classed as cell-based. The conditions noted are these: strain PA-7; unit assumed. In a few lines:
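MIC determined by broth dilution per CLSI M7-A7 guidelines with M100-S18 interpretive standards. Test organism: wild-type Pseudomonas aeruginosa UI-18, designated PA-7.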

Some results are limits rather than exact numbers.

Molecule `CC(CCn1ccc(-c2ccc(OCCO)c(Cl)c2)cc1=O)(C(=O)NO)S(C)(=O)=O` (stereo not drawn) [Example 236, 4-{4-[3-chloro-4-(2-hydroxyethoxy)phenyl]-2-oxopyridin-1(2H)-yl}-N-hydroxy-2-methyl-2-(methylsulfonyl)butanamide] gave an EC-1 (MIC) in assay [1] of 32 µg/mL. The same molecule yielded a PA-7 (MIC) in assay [2] of 16 µg/mL.
The molecule `Cc1cc(OCCO)ccc1-c1ccn(CCC(C)(C(=O)NO)S(C)(=O)=O)c(=O)c1` (stereo not drawn) [Example 237, N-hydroxy-4-{4-[4-(2-hydroxyethoxy)-2-methylphenyl]-2-oxopyridin-1(2H)-yl}-2-methyl-2-(methylsulfonyl)butanamide] came in with an EC-1 (MIC) in assay [1] above 64 µg/mL. Further, in assay [2], the PA-7 (MIC) turned out to be 32 µg/mL.
On the same counts, the results for `CC(CCn1ccc(-c2ccc(OCCCCO)c(Cl)c2)cc1=O)(C(=O)NO)S(C)(=O)=O` (stereo not drawn) [Example 238, 4-{4-[3-chloro-4-(4-hydroxybutoxy)phenyl]-2-oxopyridin-1(2H)-yl}-N-hydroxy-2-methyl-2-(methylsulfonyl)butanamide] are 0.5 µg/mL and 4 µg/mL.
For `CC(CCn1ccc(-c2ccc(OCCCCO)cc2Cl)cc1=O)(C(=O)NO)S(C)(=O)=O` (stereo not drawn) [Example 239, 4-{4-[2-chloro-4-(4-hydroxybutoxy)phenyl]-2-oxopyridin-1(2H)-yl}-N-hydroxy-2-methyl-2-(methylsulfonyl)butanamide], in that order: 1 µg/mL and 4 µg/mL.
As to `CC(CCn1ccc(-c2ccc(OCCCCO)c(F)c2)cc1=O)(C(=O)NO)S(C)(=O)=O` (stereo not drawn) [Example 240, 4-{4-[3-fluoro-4-(4-hydroxybutoxy)phenyl]-2-oxopyridin-1(2H)-yl}-N-hydroxy-2-methyl-2-(methylsulfonyl)butanamide], in assay [1], the EC-1 (MIC) came out at 1 µg/mL. Also, the PA-7 (MIC) in assay [2] came out at 4 µg/mL.
Turning to `CC(CCn1ccc(-c2ccc(OCCCCO)cc2F)cc1=O)(C(=O)NO)S(C)(=O)=O` (stereo not drawn) [Example 241], the EC-1 (MIC) in assay [1] is 2 µg/mL. Further, the PA-7 (MIC) in assay [2] turned out to be 2 µg/mL.
For the molecule `COc1cc(-c2ccn(CCC(C)(C(=O)NO)S(C)(=O)=O)c(=O)c2)ccc1OCCCCO` (stereo not drawn) [Example 242, N-hydroxy-4-{4-[4-(4-hydroxybutoxy)-3-methoxyphenyl]-2-oxopyridin-1(2H)-yl}-2-methyl-2-(methylsulfonyl)butanamide], in assay [1], the EC-1 (MIC) was determined as 32 µg/mL. The same molecule showed a PA-7 (MIC) in assay [2] of 64 µg/mL.
For `Cc1cc(OCCCCO)ccc1-c1ccn(CCC(C)(C(=O)NO)S(C)(=O)=O)c(=O)c1` (stereo not drawn) [Example 243, N-hydroxy-4-{4-[4-(4-hydroxybutoxy)-2-methylphenyl]-2-oxopyridin-1(2H)-yl}-2-methyl-2-(methylsulfonyl)butanamide], the EC-1 (MIC) in assay [1] was found to be 4 µg/mL. Besides, in assay [2], the PA-7 (MIC) was 8 µg/mL.
In the case of `CC(CCn1ccc(-c2cc(Cl)c(OCCO)cc2Cl)cc1=O)(C(=O)NO)S(C)(=O)=O` (stereo not drawn) [Example 244, 4-{4-[2,5-dichloro-4-(2-hydroxyethoxy)phenyl]-2-oxopyridin-1(2H)-yl}-N-hydroxy-2-methyl-2-(methylsulfonyl)butanamide], in assay [1], the EC-1 (MIC) is 32 µg/mL. The same molecule showed a PA-7 (MIC) in assay [2] above 64 µg/mL.
Regarding `COc1cc(OCCCCO)ccc1-c1ccn(CCC(C)(C(=O)NO)S(C)(=O)=O)c(=O)c1` (stereo not drawn) [Example 245], the EC-1 (MIC) in assay [1] came to 64 µg/mL. Besides, in assay [2], the PA-7 (MIC) came to 64 µg/mL.
In assay [1], `CC(CCn1ccc(-c2ccc(OCCCO)c(Cl)c2)cc1=O)(C(=O)NO)S(C)(=O)=O` (stereo not drawn) [Example 246, 4-{4-[3-chloro-4-(3-hydroxypropoxy)phenyl]-2-oxopyridin-1(2H)-yl}-N-hydroxy-2-methyl-2-(methylsulfonyl)butanamide] displayed an EC-1 (MIC) of 2 µg/mL. For the same molecule, in assay [2], the PA-7 (MIC) was 4 µg/mL.
For `CC(CCn1ccc(-c2ccc(OCCCO)c(F)c2)cc1=O)(C(=O)NO)S(C)(=O)=O` (stereo not drawn) [Example 247, 4-{4-[3-fluoro-4-(3-hydroxypropoxy)phenyl]-2-oxopyridin-1(2H)-yl}-N-hydroxy-2-methyl-2-(methylsulfonyl)butanamide], in that order: 4 µg/mL and 8 µg/mL.

Source of the values: patent publication US8846933B2, “N-link hydroxamic acid derivatives useful as antibacterial agents” (Pfizer Inc., priority 2009, dated 2014).
